From ChEMBL document CHEMBL1201862, “PubChem BioAssay data set” (2004)
Calls of active or inactive are those of the source.

How the values were obtained:
[1] = inhibitors of PGC1a acetylation in cells, dose response, cell-based, cherry-picked samples (AID 720514); type: functional;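 also: potency may reflect raised or lowered acetylation signal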
[2] = target: Bifunctional protein GlmU (Mycobacterium tuberculosis, UniProt P9WMN3); assay: Inhibitors of Mycobacterial Glucosamine-1-phosphate acetyl transferase (GlmU). Secondary screen.; set-up: species or system Mycobacterium tuberculosis H37Rv
Bifunctional protein GlmU, sequence (P9WMN3 whole entry): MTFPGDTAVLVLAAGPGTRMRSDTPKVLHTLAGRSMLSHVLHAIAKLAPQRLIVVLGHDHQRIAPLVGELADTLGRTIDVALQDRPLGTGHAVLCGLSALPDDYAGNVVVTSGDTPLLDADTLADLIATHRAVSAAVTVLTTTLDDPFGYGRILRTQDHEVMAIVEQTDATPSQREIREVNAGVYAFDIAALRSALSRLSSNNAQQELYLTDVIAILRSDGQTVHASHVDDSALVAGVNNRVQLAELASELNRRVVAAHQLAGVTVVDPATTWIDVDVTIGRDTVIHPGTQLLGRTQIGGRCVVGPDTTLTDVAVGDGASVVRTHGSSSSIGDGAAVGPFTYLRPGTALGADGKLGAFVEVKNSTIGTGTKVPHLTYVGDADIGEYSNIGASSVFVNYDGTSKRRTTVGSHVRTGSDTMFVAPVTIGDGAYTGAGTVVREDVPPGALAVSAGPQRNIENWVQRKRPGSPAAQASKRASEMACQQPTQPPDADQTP

[3] = system: Streptococcus sp. 'group A'; assay: growth inhibition of control SK(-) GAS strain, dose response, counter-screen for streptokinase expression inhibitor project, luminescence, kanamycin, BacTiterGlo, confirmation (AID 1900); type: functional, organism-based
[4] = system: Streptococcus; assay: Group A Streptococcus viability loss, dose response, counter-screen for streptokinase expression inhibitor project, luminescence, BacTiterGlo (AID 1915); type: functional, organism-based;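 also: potency for reduction of bacterial viability or growth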
[5] = system: CHO; assay: cytotoxicity in TLR9-MyD88 CHO cells, dose response, cytotoxicity control for TLR9-MyD88 binding inhibitor project, cell-based, luminescence (AID 588339); type: functional, hamster; settings: Cricetulus griseus;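 also: CHO cells stably coexpressing TLR9 and MyD88 fusions from primary screen; compound exposure lasted 48 hours before viability readout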
[6] = target: T1, Streptokinase A (Streptococcus pyogenes serotype M1, UniProt P10520); assay: S. pyogenes streptokinase expression inhibitors, potency, dose response, plasminogen activation absorbance, OD405 (AID 1914); type: functional, Streptococcus pyogenes M1 GAS;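 also: secreted streptokinase activity via plasminogen activation per viability signal from cell pellet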
T1 sequence (P10520 whole entry): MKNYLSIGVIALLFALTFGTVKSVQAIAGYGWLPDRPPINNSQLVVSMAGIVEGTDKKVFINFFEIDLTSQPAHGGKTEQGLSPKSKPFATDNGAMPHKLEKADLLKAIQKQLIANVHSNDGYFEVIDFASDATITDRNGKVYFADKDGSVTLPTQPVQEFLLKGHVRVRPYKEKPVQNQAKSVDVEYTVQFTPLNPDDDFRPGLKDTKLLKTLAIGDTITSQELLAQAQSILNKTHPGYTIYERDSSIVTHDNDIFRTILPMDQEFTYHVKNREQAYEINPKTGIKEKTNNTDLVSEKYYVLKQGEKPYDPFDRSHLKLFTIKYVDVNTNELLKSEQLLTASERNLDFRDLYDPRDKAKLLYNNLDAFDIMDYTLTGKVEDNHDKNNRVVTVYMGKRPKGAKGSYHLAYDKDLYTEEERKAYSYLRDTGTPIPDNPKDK

[7] = cells; type: functional
[8] = target: Beta Lactamase (Pseudomonas aeruginosa, UniProt Q932Y6); assay: beta-lactamase reporter inhibitor potency, dose response, artefact control for TLR9-MyD88 binding inhibitor project, BLA reporter cells, FRET fluorescence (AID 588341); type: cell-based;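 also: cell based assay in CHO-K1 cells stably expressing beta-lactamase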
Beta Lactamase, sequence (Q932Y6 whole entry): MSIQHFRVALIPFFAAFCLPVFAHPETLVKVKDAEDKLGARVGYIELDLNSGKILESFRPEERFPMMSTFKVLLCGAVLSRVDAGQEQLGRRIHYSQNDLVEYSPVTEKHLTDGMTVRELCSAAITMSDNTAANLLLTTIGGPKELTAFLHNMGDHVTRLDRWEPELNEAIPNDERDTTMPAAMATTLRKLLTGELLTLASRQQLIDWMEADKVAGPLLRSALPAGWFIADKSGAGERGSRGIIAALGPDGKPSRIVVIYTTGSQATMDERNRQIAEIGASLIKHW

[9] = target: Sphingosine 1-phosphate receptor 1 (Homo sapiens, UniProt P21453); type: functional;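 also: Tango beta-arrestin reporter U2OS cells stimulated with S1P near its EC80; inhibitor potency meaning antagonism of receptor activation by the natural agonist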
Sphingosine 1-phosphate receptor 1, sequence (P21453 whole entry): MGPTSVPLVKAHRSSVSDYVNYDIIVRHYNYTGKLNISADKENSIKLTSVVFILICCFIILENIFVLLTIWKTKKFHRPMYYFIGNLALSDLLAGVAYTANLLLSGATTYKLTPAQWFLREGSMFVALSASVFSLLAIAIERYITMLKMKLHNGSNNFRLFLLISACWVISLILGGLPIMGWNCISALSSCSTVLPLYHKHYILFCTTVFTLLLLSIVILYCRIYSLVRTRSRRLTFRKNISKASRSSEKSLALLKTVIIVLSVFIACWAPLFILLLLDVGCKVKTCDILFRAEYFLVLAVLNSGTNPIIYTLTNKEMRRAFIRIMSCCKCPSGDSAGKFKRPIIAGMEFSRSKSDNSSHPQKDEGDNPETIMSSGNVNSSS

[10] = target: T2, Sentrin-specific protease 7 (Homo sapiens, UniProt Q9BQF6); type: functional;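 also: Luminescence-based dose-response confirmation of ultra-high-throughput screening hits, measuring inhibition of SENP7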
T2 sequence (Q9BQF6 whole entry): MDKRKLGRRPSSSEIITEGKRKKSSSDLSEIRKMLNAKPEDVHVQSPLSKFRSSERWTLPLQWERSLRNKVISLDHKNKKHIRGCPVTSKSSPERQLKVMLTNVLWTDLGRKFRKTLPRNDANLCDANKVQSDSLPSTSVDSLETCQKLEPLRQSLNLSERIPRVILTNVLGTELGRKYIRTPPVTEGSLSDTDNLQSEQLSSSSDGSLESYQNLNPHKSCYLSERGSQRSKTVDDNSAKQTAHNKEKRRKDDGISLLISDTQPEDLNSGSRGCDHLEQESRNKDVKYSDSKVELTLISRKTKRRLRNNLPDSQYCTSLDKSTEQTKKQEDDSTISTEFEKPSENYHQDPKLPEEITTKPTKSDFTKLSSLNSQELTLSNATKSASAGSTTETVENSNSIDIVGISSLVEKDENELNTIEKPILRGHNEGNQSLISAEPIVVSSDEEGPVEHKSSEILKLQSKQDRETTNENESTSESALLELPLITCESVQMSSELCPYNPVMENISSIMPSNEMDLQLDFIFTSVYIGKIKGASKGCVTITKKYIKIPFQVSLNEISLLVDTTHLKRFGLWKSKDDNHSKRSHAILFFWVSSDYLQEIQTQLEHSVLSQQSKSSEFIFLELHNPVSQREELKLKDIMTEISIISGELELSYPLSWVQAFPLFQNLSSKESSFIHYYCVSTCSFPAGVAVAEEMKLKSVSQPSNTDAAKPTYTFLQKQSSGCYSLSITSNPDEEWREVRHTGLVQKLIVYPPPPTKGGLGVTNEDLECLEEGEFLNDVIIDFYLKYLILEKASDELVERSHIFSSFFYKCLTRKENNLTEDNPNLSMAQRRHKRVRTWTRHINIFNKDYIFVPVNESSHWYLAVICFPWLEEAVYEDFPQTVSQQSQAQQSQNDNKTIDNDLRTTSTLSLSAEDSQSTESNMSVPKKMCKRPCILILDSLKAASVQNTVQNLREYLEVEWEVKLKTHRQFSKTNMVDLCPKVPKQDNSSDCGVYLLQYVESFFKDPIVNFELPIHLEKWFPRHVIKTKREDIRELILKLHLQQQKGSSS

[11] = target: T3, SUMO-activating enzyme (Homo sapiens, UniProt Q9UBT2); assay: SUMOylation inhibitor hit validation, confirmation, SUMOylation inhibitor project, biochemical, AlphaScreen (AID 2018); type: functional
T3 sequence (Q9UBE0 whole entry): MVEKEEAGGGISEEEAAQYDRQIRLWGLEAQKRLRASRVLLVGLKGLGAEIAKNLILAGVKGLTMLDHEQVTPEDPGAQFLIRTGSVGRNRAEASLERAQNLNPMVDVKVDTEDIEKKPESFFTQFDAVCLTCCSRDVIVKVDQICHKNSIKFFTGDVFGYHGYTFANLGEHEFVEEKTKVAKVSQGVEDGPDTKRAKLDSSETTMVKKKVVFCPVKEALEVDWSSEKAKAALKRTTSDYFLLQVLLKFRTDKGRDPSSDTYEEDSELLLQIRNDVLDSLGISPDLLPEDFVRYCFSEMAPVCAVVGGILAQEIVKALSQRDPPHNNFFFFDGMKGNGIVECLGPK
T3 sequence (Q9UBT2 whole entry): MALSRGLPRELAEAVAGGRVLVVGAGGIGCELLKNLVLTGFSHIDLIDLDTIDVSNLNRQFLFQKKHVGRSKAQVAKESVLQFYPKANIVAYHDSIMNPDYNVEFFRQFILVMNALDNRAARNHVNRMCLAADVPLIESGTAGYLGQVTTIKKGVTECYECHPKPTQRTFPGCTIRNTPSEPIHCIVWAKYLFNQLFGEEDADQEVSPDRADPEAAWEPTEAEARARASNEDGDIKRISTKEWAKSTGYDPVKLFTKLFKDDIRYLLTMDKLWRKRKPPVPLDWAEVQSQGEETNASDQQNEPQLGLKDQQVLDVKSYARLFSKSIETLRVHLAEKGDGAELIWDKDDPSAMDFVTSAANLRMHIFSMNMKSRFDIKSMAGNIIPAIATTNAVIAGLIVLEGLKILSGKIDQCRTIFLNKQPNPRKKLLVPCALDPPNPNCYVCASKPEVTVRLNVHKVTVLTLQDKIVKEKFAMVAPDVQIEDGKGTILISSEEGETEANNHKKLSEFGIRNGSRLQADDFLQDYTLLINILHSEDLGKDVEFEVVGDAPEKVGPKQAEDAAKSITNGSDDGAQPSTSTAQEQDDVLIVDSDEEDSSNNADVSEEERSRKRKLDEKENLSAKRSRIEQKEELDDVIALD

[12] = target: T3, SUMO-activating enzyme; assay: inhibitors of in vitro SUMOylation cascade, primary screen, biochemical, HTRF, uHTS (AID 2006); type: protein-complex assay
[13] = target: T4, Heat shock factor protein 1 (Mus musculus, UniProt P38532); assay: inhibition of MG132-induced HSE-luciferase signal, confirmation, cell-based, NIH3T3, luminescence, dose retest (AID 2382); type: functional;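 also: NIH3T3 fibroblasts with HSF1-driven luciferase reporter stressed by proteasome inhibitor MG132; luminescence from HSF1-driven luciferase expression after 8 hours of MG132 stress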
T4 sequence (P38532 whole entry): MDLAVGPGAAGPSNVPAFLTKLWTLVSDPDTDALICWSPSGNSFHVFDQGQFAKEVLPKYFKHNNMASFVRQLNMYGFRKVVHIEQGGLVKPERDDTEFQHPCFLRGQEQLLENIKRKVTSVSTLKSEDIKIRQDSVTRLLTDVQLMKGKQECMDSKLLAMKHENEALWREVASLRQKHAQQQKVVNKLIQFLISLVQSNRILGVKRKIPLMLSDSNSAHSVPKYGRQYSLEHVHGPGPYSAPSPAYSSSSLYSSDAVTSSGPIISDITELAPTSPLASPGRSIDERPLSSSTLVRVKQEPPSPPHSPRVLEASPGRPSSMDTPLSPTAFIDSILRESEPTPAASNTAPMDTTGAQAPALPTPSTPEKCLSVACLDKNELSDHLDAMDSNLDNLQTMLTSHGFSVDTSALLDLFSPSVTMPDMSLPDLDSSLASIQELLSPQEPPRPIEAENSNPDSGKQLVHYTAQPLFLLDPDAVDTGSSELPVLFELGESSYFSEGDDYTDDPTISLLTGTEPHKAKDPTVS

SMILES: O=C(Nc1ccccc1)c1nnsc1[S+]([O-])c1ccc(Cl)cc1 (configuration not stated)
- AC50 [1]: 10.3 µM (active)
- IC50 [2]: 197 µM (active)
- EC50 [3]: 2.11 µM (active)
- EC50 [4]: 3.79 µM (active)
- IC50 [5]: 3.46 µM (active)
- EC50 [6]: 1.06 µM (active)
- IC50 [7]: 13.1 µM (active)
- IC50 [8]: 11.9 µM (inactive)
- IC50 [9]: > 49.8 µM (not active)

SMILES: O=C1C=C(Nc2ccccc2)c2ccccc2C1=O
- IC50 [10]: 12.2 µM (active)
- IC50 [11]: 1.47 µM (active)
- EC50 [3]: 1.77 µM (active)
- IC50 [12]: 20.7 µM (active)
- EC50 [4]: 8.86 µM (active)
- EC50 [6]: > 150 µM (not active)

SMILES: CC1OC(Nc2cccc3ccccc23)C(O)C(O)C1O (configuration not stated)
- EC50 [13]: > 195 µM (not active)
- IC50 [10]: 7.53 µM (active)
